Experimental data from patent US20120208746A1, “GENETIC MARKERS ASSOCIATED WITH RESPONSE TO CYCLOPHILIN-BINDING COMPOUNDS” (priority 2011, published 2012).
“Also recorded” adds a separate entry of the source.

How the values were obtained:
[1] = human, in vivo, 300 mg
Text: Blood and urine samples were collected from human subjects on Days 1, 2, 3, and 14 during the 8-hour interval immediately following administration of the first dose on each specified study day. In addition, blood samples for the measurement of trough drug concentrations were collected from all human subjects immediately prior to the administration of SCY-635 on the mornings of Days 4, 5, 8, 11, 12, and 15, and prior to the evening dose on Day 13.
(§1) Plasma samples for the determination of SCY-635 concentrations were taken throughout the 8-hour interval immediately following administration of the first dose of study medication on treatment days 1, 2, and 3. In FIGS. 8A-11B, the squares correspond to SCY-635 plasma concentrations following dose 1 on Study Day 1, dose 1 on Study Day 2, and dose 1 on Study Day 3. The left Y-axis contains the scale for the absolute plasma concentration of SCY-635. The diamond symbols correspond to the plasma concentrations for the various interferons. The opposing (right) Y-axis contains the scale for the absolute concentration of each respective interferon.

interferon alpha (IFN-α) = experiment: Plasma IFN-α concentration (ELISA) in HCV patients given SCY-635; type: in vivo, human; conditions: total daily dose 900 milligrams, all subjects
Method: (§2) Plasma pharmacokinetic samples were obtained from all subjects who received a 900 milligram total daily dose of SCY-635 (given as 300 mg t.i.d.). The samples were analyzed by ELISA to determine their concentrations of interferon alpha (IFN-α), interferon beta (IFN-β), interferon lambda-1 (IFN-λ1/IL-29), and interferon lambda-3 (IFN-λ3/IL-28B).
as §1, with “The opposing (right) Y-axis contains the scale for the absolute concentration of each respective interferon.” left out
(§3) The plasma concentrations of neopterin and 2′5′OAS1 (markers of innate immune activation) and interferons α, β, λ1 (1L29), and λ3 (IL28B) were quantified from patient samples using commercially available ELISA-based assays. […]
(§4) The plasma concentrations of neopterin and 2′5′OAS-1 (markers of innate immune activation) and interferons α, β, λ1 (IL29) and λ3 (IL28) were quantified from patient samples using commercially available ELISA-based assays. […]

interferon beta (IFN-β) = experiment: Plasma IFN-β concentration (ELISA) in HCV patients given SCY-635; type: in vivo, human; conditions: total daily dose 900 milligrams, all subjects
Method: as §2
as §1, with “The opposing (right) Y-axis contains the scale for the absolute concentration of each respective interferon.” left out
as §3, §4

[2] = test system: interferon lambda-1 (IFN-λ1/IL-29); experiment: Plasma IFN-λ1/IL-29 concentration (ELISA) in HCV patients given SCY-635; type: in vivo, human; conditions: total daily dose 900 milligrams, all subjects
Method: as §2
as §1, with “The opposing (right) Y-axis contains the scale for the absolute concentration of each respective interferon.” left out
as §3, §4

[3] = test system: interferon lambda-3 (IFN-λ3/IL-28B); experiment: Plasma IFN-λ3/IL-28B concentration (ELISA) in HCV patients given SCY-635; type: in vivo, human; conditions: total daily dose 900 milligrams, all subjects
Method: as §2
as §1, with “The opposing (right) Y-axis contains the scale for the absolute concentration of each respective interferon.” left out
as §3, §4

human OAS1 = experiment: Plasma OAS1 (2′5′OAS-1) concentration (ELISA) in HCV patients given SCY-635; type: in vivo; conditions: 900 mg/d, all subjects
Method: Blood plasma samples were taken from patients in Example 1 (see above) prior to dosing of SCY-635 and at time periods through the end of the fifteen days treatment and were tested using a Enzyme-linked Immunosorbent Assay (ELISA) kit for human OAS1 (obtained from Uscn Inc., the E92684Hu 96 Test). The kit is a sandwich enzyme immunoassay for the in vitro quantitative measurement of human OAS1 in serum, plasma and other biological fluids.
The microtiter plate provided in the kit has been pre-coated with a monoclonal antibody specific to OAS1. Standards or samples are then added to the appropriate microtiter plate wells with a biotin-conjugated polyclonal antibody preparation specific for OAS1. […] The enzyme-substrate reaction is terminated by the addition of a sulfuric acid solution and the color change is measured spectrophotometrically at a wavelength of 450 nm±10 nm. The concentration of OAS1 in the samples is then determined by comparing the optical density of the samples to the standard curve sample.
To calculate the results, the average for the duplicate readings for each standard, control, and sample (single reading) were taken and the average zero standard optical density was subtracted. A best fit straight line with OAS1 concentration on the y-axis and absorbance on the x-axis was drawn. […]

2′-5′ OAS = 2′-5′ OAS induction in subgenomic con1b HuH7 cells; type: cell-based, human; conditions: SCY-635 2 μM or IFNα-2b 50 U/ml
Method: Subgenomic con1b HuH7 and parent HuH7 cells were maintained in a humidified incubator at 37° C. in 5% CO2. Cells were cultured in Dulbecco's modified essential media (DMEM) supplemented with 10% fetal bovine serum (FBS), 1% penicillin-streptomycin, 1% glutamine, and 1% non-essential amino acids. Media for subgenomic con1b HuH7 cells also contained 5 mg/ml G418.
Subgenomic replicon cells were plated into 6-well dishes at a starting density of 100,000 cells per well in the presence of G418. Parental HuH7 cells were plated in parallel at a starting density of 50,000 cells per well to obtain similar densities to replicon cells on days 3 and 4. Five plates of each cell line were prepared; plates were incubated overnight in a humidified incubator at 37° C. in 5% CO2.
One plate of each cell line was harvested as follows; • Centrifuged the 6-well plate at approximately 700×g for 10 min at 4° C. in swinging bucket rotor. • Removed the extracellular medium from each well and placed in a 5 ml cryovial. […]
IFNλ1, which is the Interleukin 29 (IL29) gene product, and 2′-5′ Oligoadenylate Synthetase 1 (2′-5′ OAS) in cell supernatants were measured using the ELISA kit for IL29 or 2′-5′ OAS (USCN Life Sciences E92029Hu, E92684Hu) following the kit protocols. Combined IFNα levels were measured using the VeriPlex™ Human Interferon Multiplex ELISA kit (9-plex), following the kit protocols.

SMILES: C/C=C/C[C@@H](C)[C@@H](O)[C@H]1C(=O)N[C@@H](CC)C(=O)N(C)[C@H](SCCN(C)C)C(=O)N(C)[C@@H](CC(C)(C)O)C(=O)N[C@@H](C(C)C)C(=O)N(C)[C@@H](CC(C)C)C(=O)N[C@@H](C)C(=O)N[C@H](C)C(=O)N(C)[C@@H](CC(C)C)C(=O)N(C)[C@@H](CC(C)C)C(=O)N(C)[C@@H](C(C)C)C(=O)N1C [SCY-635, 3-[(R)-2-(N,N-dimethylamino)ethylthio-Sar]-4-(gamma-hydroxymethylleucine)cyclosporin]
- coefficient of variation (CV %) for plasma AUC0-8 [1]: 41.5%
- coefficient of variation (CV %) for plasma Cmax [1]: 37.6%
- plasma concentration of IFN-α, change from baseline (interferon alpha (IFN-α)): increases from their respective baseline values
- changes in the plasma concentration of IFN-β (interferon beta (IFN-β)): inversely related to changes in the plasma concentration of SCY-635; also recorded: Treatment-associated decreases
- plasma concentration of IFN-λ1, change from baseline [2]: increases from their respective baseline values
- plasma concentration of IFN-λ3, change from baseline [3]: increases from their respective baseline values
- plasma concentration of 2′5′OAS1, change (human OAS1): temporally coincident increases
- levels of 2′-5′ OAS (2′-5′ OAS): increased levels
